Assay results: publication PMC5308256 (2017)

Columns and labels:
[1] = tested on: A12-MB-A12 (FAM/DABCYL-labeled) (DNA, hairpin) AAAAAAAAAAAACATCATAGTCGAGTGTCCAGGGAAAAAAAAAAAA; assay: FAM/DABCYL fluorescence quenching titration; conditions: 10 mM HEPES pH 7.3; 10 nM DNA; saturation at 0.6 μM coralyne
[2] = tested on: FAM-A40-DABCYL (A40) (DNA, hairpin) AAAAAAAAAAAAAAAAAAAAAAAAAAAAAAAAAAAAAAAA; assay: FAM/DABCYL fluorescence quenching titration; conditions: 10 mM HEPES pH 7.3; 10 nM DNA; saturation at 0.6 μM coralyne
[3] = tested on: label-free A12-MB-A12 (DNA, hairpin) AAAAAAAAAAAACATCATAGTCGAGTGTCCAGGGAAAAAAAAAAAA; assay: SYBR Green I fluorescence enhancement on folding; conditions: 10 mM HEPES pH 7.3; 0.5 μM DNA; 160 nM SYBR Green I

## COc1cc2cc3c4cc(OC)c(OC)cc4cc[n+]3c(C)c2cc1OC
[1]
  Kd: 500 nM
[2]
  binding: yes
[3]
  binding: yes
